Like-named read-outs stand apart in the source and are kept apart here.

For one experiment, the system named is CT26 and EMT6 cells. Kind of experiment: Re-implantation of CT26 and EMT6 cells into mice with exceptional responses (immunologic memory). Particulars: previous αPD-L1 + Compound 1. In kind it is in vivo, mouse. Here is the method: (§1) Combination studies were performed by vivoPharm (Hummelstown, Pa., USA). All procedures used in the performance of these studies were carried out in accordance with vivoPharm's Standard Operating Procedures, with particular reference to US_SOPvP_EF0314 “General Procedures for Efficacy Studies.” CT26 colon carcinoma cells (1×10^6 cells/mouse in 100 μL, passage 2-3) were re-suspended in serum-free DMEM and implanted in the upper right flank of 11-12 week old female Balb/c mice (Charles River Laboratories). Mice were randomized into four groups of 10 using a matched pair distribution method based on tumor size for CT26. Treatment was initiated 12 days post-inoculation with mean tumor volume at start of dosing of 125.85 mm^3. Vehicle or Compound 1 (40 mg/kg) was administered by oral gavage daily for 26 days and isotype control or a reverse chimera anti-PD-L1 cloned from literature reports (e.g., Deng, R. et al. MAbs (2016), the content of which is incorporated herein by reference in entirety) and placed into a mouse IgG1 framework (10 mg/kg) was administered every 5 days for a total of six doses. Investigators were not blinded to treatment groups. […] Mice were sacrificed on Day 13 and lung metastases were quantified (small ≤1 mm, medium >1 mm and ≤3 mm, large >3 mm). No large lung metastases were detected.

Another experiment concerns B16F10 lung metastases. Kind of experiment: B16F10 tail vein injection model, lung metastases. Format: in vivo, mouse. Particulars: Compound 1 40 mg/kg daily for 13 days ± anti-PD-L1 10 mg/kg. Here is the method: as §1
Experiment [1] has as its target off-target kinases (Homo sapiens, UniProt P12931). Kind of experiment: SelectScreen Kinase Profiling, single point inhibition and IC50 for off-target kinases. Format: biochemical. The arrangement: other: SRC N1; 1000 μM; ATP Km app; ZLYTE. The following applies: SRC N1, ATP Km app, ZLYTE. Here is the method:
(§2) Biochemical single point inhibition and IC50 concentrations for TBK1, IKKε (IKBKE), and off-target kinases were determined at ThermoFisher Scientific using SelectScreen Kinase Profiling Services (Madison, Wis., USA) (Tables S4A and S4B-1-7). To determine cellular potency, the human colorectal cancer carcinoma cell line HCT116 (ATCC, Manassas, Va.) was maintained in T175 flasks in complete RPMI medium; RPMI 1640 supplemented with 10% FBS, 1× Penicillin-Streptomycin solution and 1×MEM (non-essential amino acids). HCT116 cells were grown to 90-95% confluency in T175 flasks containing complete RPMI medium and transfected in bulk using Lipofectamine 2000 (Invitrogen, Carlsbad, Calif.) with 70 μg of ISG54-luciferase reporter plasmid (Elim Biopharmaceuticals Inc., Hayward, Calif.). The reporter plasmid contains a luciferase gene expression cassette under the transcriptional regulation of the promoter of the human interferon stimulated gene 54 (ISG54). Transfection of the cells was allowed to take place for 6 hours, after which the cells were harvested by treatment with 0.25% trypsin EDTA (Corning Inc., Corning, N.Y.). Trypsinized cells were added to 384-well poly-d-lysine treated black clear bottom tissue culture assay plates (Greiner Bio-One GmbH, Kremsmünster, Austria) at a density of 20,000 cells/well in 80 μL of complete RPMI medium and incubated overnight. After 16-18 hours post-transfection, the assay plates were washed with PBS (Corning Inc., Corning, N.Y.), followed by addition of 80 μL/well of serum-free RPMI 1640 medium containing 1× Penicillin-Streptomycin solution, 1×MEM and 350 nL of DMSO or titrations of Compound 1. […] The assay plates were incubated for 5 hours at 37° C., followed by addition of One-Glo luciferase firefly reagent (Promega, Madison, Wis.) at 1:1 volume/well and luminescence was measured in an EnVision Multilabel Plate Reader (PerkinElmer, Santa Clara, Calif.). The EC50 values were calculated from the fit of the dose-response curves to a four-parameter equation. […]

For experiment [2], the target named is off-target kinases (Homo sapiens, UniProt P00533, DEL746-750). The experiment is described as above. Format: biochemical. Further details: other: EGFR (ErbB1) d746-750; mutant y; 1000 μM. Particulars: EGFR (ErbB1) d746-750, mutant y, LanthaScreen Binding. The protocol: as §2, with “(ISG54).” for “(ISG54). Transfection of the cells was allowed to take place for 6 hours, after which the cells were harvested by treatment with 0.25% trypsin EDTA (Corning Inc., Corning, N.Y.). Trypsinized cells were added to 384-well poly-d-lysine treated black clear bottom tissue culture assay plates (Greiner Bio-One GmbH, Kremsmünster, Austria) at a density of 20,000 cells/well in 80 μL of complete RPMI medium and incubated overnight. After 16-18 hours post-transfection, the assay plates were washed with PBS (Corning Inc., Corning, N.Y.), followed by addition of 80 μL/well of serum-free RPMI 1640 medium containing 1× Penicillin-Streptomycin solution, 1×MEM and 350 nL of DMSO or titrations of Compound 1.”
On the technique in general: Time-resolved FRET reads energy transfer from a long-lived donor to a nearby acceptor.

Experiment [3] concerns the target off-target kinases (Homo sapiens, UniProt P05771). The experiment is described as above. In kind it is biochemical. Particulars: PRKCB2 (PKC beta II), ZLYTE, ATP Km app. The arrangement: other: PRKCB2 (PKC beta II); ZLYTE; ATP Km app; 1000 μM. The protocol: as §2

Chain of off-target kinases (Homo sapiens, UniProt P05771) (P05771 1-673 isoform P05771-2): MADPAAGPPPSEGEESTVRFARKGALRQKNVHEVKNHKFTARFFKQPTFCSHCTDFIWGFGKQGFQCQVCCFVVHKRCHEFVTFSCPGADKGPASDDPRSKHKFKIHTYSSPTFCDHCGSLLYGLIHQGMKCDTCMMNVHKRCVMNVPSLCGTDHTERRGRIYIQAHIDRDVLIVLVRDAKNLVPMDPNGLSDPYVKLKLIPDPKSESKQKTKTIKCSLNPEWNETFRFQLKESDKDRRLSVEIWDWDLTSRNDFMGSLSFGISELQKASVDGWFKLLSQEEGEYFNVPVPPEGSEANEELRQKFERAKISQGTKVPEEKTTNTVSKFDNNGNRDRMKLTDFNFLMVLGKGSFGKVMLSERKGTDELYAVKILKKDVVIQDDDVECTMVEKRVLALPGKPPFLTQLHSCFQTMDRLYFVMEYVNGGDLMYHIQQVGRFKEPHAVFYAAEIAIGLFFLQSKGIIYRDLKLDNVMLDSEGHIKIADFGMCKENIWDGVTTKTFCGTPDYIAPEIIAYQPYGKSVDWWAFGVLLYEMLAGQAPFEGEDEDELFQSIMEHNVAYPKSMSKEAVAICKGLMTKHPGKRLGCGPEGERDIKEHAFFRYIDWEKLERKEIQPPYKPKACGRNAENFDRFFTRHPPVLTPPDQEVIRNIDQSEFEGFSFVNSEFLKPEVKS
Chain of off-target kinases (Homo sapiens, UniProt P12931) (P12931 1-542 isoform P12931-2): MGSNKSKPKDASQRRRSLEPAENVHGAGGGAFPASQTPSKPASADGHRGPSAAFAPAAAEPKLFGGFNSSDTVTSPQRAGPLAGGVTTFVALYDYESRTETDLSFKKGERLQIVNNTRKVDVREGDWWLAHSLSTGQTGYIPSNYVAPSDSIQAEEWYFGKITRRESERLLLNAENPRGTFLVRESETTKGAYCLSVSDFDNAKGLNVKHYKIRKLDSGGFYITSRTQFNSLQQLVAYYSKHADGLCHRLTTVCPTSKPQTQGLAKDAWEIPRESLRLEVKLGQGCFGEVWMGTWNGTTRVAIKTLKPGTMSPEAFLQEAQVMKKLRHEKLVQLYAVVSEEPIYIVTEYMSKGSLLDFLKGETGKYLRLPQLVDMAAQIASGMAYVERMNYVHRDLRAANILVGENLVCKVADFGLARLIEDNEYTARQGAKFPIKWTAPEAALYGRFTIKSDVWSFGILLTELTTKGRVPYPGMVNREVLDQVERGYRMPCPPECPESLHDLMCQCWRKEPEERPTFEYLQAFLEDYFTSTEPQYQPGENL
Chain of off-target kinases (Homo sapiens, UniProt P00533, DEL746-750) (P00533 with tags, fused parts or gaps DEL746-750): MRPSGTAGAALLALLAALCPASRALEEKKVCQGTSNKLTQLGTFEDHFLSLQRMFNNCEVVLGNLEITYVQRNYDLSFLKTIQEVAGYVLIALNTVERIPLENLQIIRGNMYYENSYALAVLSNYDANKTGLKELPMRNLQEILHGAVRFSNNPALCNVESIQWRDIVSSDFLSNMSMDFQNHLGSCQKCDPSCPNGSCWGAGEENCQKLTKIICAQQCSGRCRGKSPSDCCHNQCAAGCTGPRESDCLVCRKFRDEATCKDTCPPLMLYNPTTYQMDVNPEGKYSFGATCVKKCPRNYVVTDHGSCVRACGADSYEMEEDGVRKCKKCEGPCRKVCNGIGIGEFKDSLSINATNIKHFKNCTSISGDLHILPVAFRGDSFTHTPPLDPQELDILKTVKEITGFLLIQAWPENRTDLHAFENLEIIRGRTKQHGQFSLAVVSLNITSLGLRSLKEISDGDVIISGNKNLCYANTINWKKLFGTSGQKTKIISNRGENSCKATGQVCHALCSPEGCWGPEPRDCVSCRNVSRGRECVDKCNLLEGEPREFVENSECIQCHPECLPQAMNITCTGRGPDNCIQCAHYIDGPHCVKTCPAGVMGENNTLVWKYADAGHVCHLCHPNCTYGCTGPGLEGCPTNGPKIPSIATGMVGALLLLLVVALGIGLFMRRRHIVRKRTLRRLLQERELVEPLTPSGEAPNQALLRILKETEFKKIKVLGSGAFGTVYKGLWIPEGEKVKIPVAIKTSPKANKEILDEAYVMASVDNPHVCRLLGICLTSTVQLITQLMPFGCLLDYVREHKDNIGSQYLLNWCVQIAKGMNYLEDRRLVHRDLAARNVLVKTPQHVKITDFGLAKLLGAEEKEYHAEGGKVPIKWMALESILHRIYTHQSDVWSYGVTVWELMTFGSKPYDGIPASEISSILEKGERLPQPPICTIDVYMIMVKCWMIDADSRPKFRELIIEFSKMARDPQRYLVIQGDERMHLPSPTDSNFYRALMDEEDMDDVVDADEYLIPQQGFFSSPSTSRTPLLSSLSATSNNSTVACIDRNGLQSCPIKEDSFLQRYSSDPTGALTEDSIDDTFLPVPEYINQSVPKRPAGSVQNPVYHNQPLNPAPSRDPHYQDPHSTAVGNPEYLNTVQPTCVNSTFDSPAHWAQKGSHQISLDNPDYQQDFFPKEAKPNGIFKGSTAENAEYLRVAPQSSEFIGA

In the case of `N#Cc1cc(-c2ncnc(Nc3ccc(N4CCN(C5COC5)CC4)cc3)n2)ccc1OC1CCOCC1` [Compound 1, 5-(4-((4-(4-(oxetan-3-yl)piperazin-1-yl)phenyl)amino)-1,3,5-triazin-2-yl)-2-((tetrahydro-2H-pyran-4-yl)oxy)benzonitrile], the “growth of reimplanted CT26 in mice with exceptional responses to combination therapy” value with CT26 and EMT6 cells was “no growth”. Also, the “sensitization of B16F10 tail vein model to PD-L1 blockade (lung metastases)” value with B16F10 lung metastases was “could not be sensitized”. Further, the inhibition at off-target kinases [1] (read-out: % Inhibition 1) worked out at 54%; at off-target kinases [1] (read-out: % Inhibition 2), 60%; at off-target kinases [1] (read-out: % Inhibition Avg) it was 57%; on off-target kinases [2] (read-out: % Inhibition 1), 14%; on off-target kinases [2] (read-out: % Inhibition 2), 13%; at off-target kinases [3] (read-out: % Inhibition 1), 12%. Besides, the inhibition came out at 8% at off-target kinases [3] (read-out: % Inhibition 2) and 10% on off-target kinases [3] (read-out: % Inhibition Avg).

A word on the inhibition: it is the percentage by which the read-out fell short of the control.

(Values after patent US11572590B2, “Methods for evaluating tumor cell spheroids using 3D microfluidic cell culture device” (Dana-Farber Cancer Institute, Inc., priority 2017, dated 2023).)
